# From patent US5183893A, “1-azabicycloalkane derivatives, their preparation process and their use as medicaments” (Roussel Uclaf, priority 1988, dated 1993)
# Structures can show the parent of a compound that is named as a salt. Where two headings read alike, the source gives them in different places.
# Assays:
# [1] = test system: isolated ileum of a guinea-pig; assay: Test on the isolated ileum of a guinea-pig (agonist activity); assay type: cell-based; settings: Cavia porcellus, read-out: pD2 (negative logarithm of the dose which produces 50% of the maximum effect) (converted)
# Experimental: Pieces of ileum are removed from guinea-pigs which have been killed by decapitation. The isolated ileum is placed in 10 cm^3 of Tyrode's solution at 37° C. and aerated by a mixture of oxygen (95%) and carbon dioxide (5%). The contractions due to the products are recorded using a sensor connected to a polygraph. The products being tested are added, in concentrations comprised between 1.10^-3 M and 1.10^-8 M/1.
# The products presenting a contracting effect are tested vis-a-vis atropine and hexamethonium to establish if the activity is of "muscarinic" or "nicotinic" type.
# The agonist activity is expressed in pD2 (negative logarithm of the dose which produces 50% of the maximum effect).
# [2] = Diarrheic activity; set-up: species or system mice; settings: mouse, in vivo
# Experimental: The test is carried out on male mice (CD1 Charles Rivers) weighing 25 to 30 g, and without food for 6 hours. The product, dissolved at 5% in methocel, is administered by oral route, using an oesophagus probe.
# Control animals receive only the excipient (20 ml/kg).
# After treatment, the animals are put separately into cages, the bottom of which is covered with absorbent paper, and are observed for 30, 60, 120 and 180 minutes.
# The absorbent sheets of paper are changed after each observation.
# The consistency of the faeces is evaluated according to the Randall and Baruth method (Arch. Int. Pharmacodyn., 220, 94, 1976) in accordance with the following scale of values.
# 1: slightly soft faeces with or without a damp ring,
# 2: slightly soft faeces with presence of a well-defined damp ring,
# 3: soft faeces with presence of a large damp ring,
# 4: faeces without consistency with presence of a very large camp ring.
# For each product, the dose has been noted which cause diarrohea in 50% of the animals according to the Miller and Tainter method (Proc. Soc. Exp. Biol. Med., 57, 261, 1944).
# [3] = Acute toxicity (mortality during 7 days, oral); settings: mouse, in vivo, male CD1 mice, fasted 16 hours, mortality noted during 7 days
# Experimental: The test is carried out on male mice (CD1 Charles Rivers) weighing 22 to 24 g, which have gone without food for 16 hours. The products are administered by oral route at a dose of 1000, 500, 250, 125, 62, 31 and 16 mg/kg. The mortality is noted during the 7 days following the treatment.
# [4] = test system: male mice (CD1 Charles Rivers); assay: Hypothermic activity; assay type: in vivo; settings: for ED (-1 C body temperature): Mus musculus, read-out: Effective dose (-1° C.)
# Experimental: The test is carried out on male mice (CD1 Charles Rivers) weighing 25 to 30 g, and without food for 6 hours.
# The body temperature is noted using a thermocouple placed in the rectum to about 1.5 cm and connected to an electrical temperature recorder. […]
# The degree of hypothermia is evaluated as the difference between the treated animals and the control animals and the dose necessary to reduce the body temperature by 1° C. is determined.
# The duration of action of the products is determined by using doses capable of reducing the temperature by 1° to 1.2° C.
# [5] = isolated guinea-pig ileum, contraction, Tyrode's solution at 37° C.
# [6] = sc, sub-cutaneous route, dose necessary to reduce body temperature by 1° C.
# [7] = oral route, dose necessary to reduce body temperature by 1° C.
smiles,measurement,setting,value
"CC(=O)OC1CN2CCC1CC2 (stereo not shown) [Aceclidine, HCl]",EC50,[1],0.105 µM
same,ED50 at 3 h,"[2]; male CD1 mice, fasted 6 hours, oral, observed up to 180 minutes, read-out: ED50 (dose which causes diarrhoea in 50% of the animals)",4 mg/kg
same,LD50 at 168 h,[3],250 mg/kg
same,duration of action: body temperature difference from controls,"[4]; 2.50 mg/kg sub-cutaneous, 30 min",-1.0 °C
same,duration of action: body temperature difference from controls,"[4]; 2.50 mg/kg sub-cutaneous, 60 min",-0.1 °C
same,duration of action: body temperature difference from controls,"[4]; 2.50 mg/kg sub-cutaneous, 120 min",+0.1 °C
same,duration of action: body temperature difference from controls,"[4]; 2.50 mg/kg sub-cutaneous, 180 min",+0.1 °C
same,duration of action: body temperature difference from controls,"[4]; 7.50 mg/kg oral, 30 min",-1.1 °C
same,duration of action: body temperature difference from controls,"[4]; 7.50 mg/kg oral, 60 min",-0.3 °C
same,duration of action: body temperature difference from controls,"[4]; 7.50 mg/kg oral, 180 min",+0.1 °C
same,ED (-1 C body temperature),[4]; po,6.4 mg/kg
same,ED (-1 C body temperature),[4]; sc,2.1 mg/kg
"CON=CC1CN2CCC1CC2 (stereo not shown) [Example 1, 1-azabicyclo-[2,2,2]-octan-3-carboxaldehyde O-methyloxime]",EC50,[1]; [5],0.0501 µM
same,ED50 at 3 h,[2]; po,1.1 mg/kg
same,LD50 at 168 h,[3],30 mg/kg
same,duration of action: body temperature difference from controls,"[4]; 0.25 mg/kg oral, 30 min",-1.1 °C
same,duration of action: body temperature difference from controls,"[4]; 0.25 mg/kg oral, 60 min",-1.0 °C
same,duration of action: body temperature difference from controls,"[4]; 0.25 mg/kg sub-cutaneous, 30 min",-1.2 °C
same,duration of action: body temperature difference from controls,"[4]; 0.25 mg/kg sub-cutaneous, 60 min",-1.1 °C
same,ED (-1 C body temperature),[4]; [6],0.18 mg/kg
same,ED (-1 C body temperature),[4]; [7],0.19 mg/kg
"CCON=CC1CN2CCC1CC2 (stereo not shown) [Example 2, 1-azabicyclo-[2,2,2]-octan-3-carboxaldehyde O-ethyloxime]",LD50 at 168 h,[3],150 mg/kg
"C#CCON=CC1CN2CCC1CC2 (stereo not shown) [Example 3, 1-azabicyclo-[2,2,2]-octan-3-carboxaldehyde O-2-propynyloxime]",LD50 at 168 h,[3],40 mg/kg
"CON=C(C)C1CN2CCC1CC2 (stereo not shown) [Example 4, (1-azabicyclo-[2,2,2]-octan-3-yl)-ethanone O-methyloxime hydrochloride]",EC50,[1]; [5],0.0955 µM
same,ED50 at 3 h,[2]; po,3 mg/kg
same,LD50 at 168 h,[3],75 mg/kg
same,ED (-1 C body temperature),[4]; [6],0.33 mg/kg
same,ED (-1 C body temperature),[4]; [7],0.33 mg/kg
